Measured values taken from patent US20180251431A1 (VERTEX PHARMACEUTICALS INCORPORATED, priority 2016, published 2018).
pIC50: −log10 of the molar value. Read-outs that look alike come from different tables or passages of the source.

Tested on: HEK293 cells
Experiment: HEK293 VLCFA-LPC IC50 determination (13C-labeled C26:0 LPC by UHPLC/MS)
Type: cell-based, human
Settings: average of one or more replicates, read-out: Average HEK293 IC50
How it was run: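 Suspension HEK293 cells (final 0.5 million/mL after mixing with equal volume) incubated 48 hours with compound plus 13C-acetate (1.0 mg/mL in added media), shaking at 37° C. Lipids extracted with hexane/isopropanol or methanol, C13:0 LPC standard. UHPLC/MS of 13C-labeled C26:0 LPC (638.500/104.100 m/z); IC50 by four-parameter fit.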

[1] = Homo sapiens, HEK293, 48 h, 13C-labeled C26:0 LPC, 48 hours
[2] = Homo sapiens, HEK293, HEK293 cells

Row | Compound | pIC50 [2] | also measured
1 | O=C(Nc1ccn(-c2ncc(F)cc2F)n1)C1(c2ccccc2F)CC1 [Compound 391, N-(1-(3,5-difluoropyridin-2-yl)-1H-pyrazol-3-yl)-1-(2-fluorophenyl)cyclopropane-1-carboxamide] | – | pIC50 [1]: 6.72
2 | O=C(Nc1ccn(-c2ccc(F)cc2)n1)C1(c2ncccc2F)CC1 [Compound 456, N-[1-(4-fluorophenyl)pyrazol-3-yl]-1-(3-fluoro-2-pyridyl)cyclopropanecarboxamide] | 7.00 | –
3 | CCC1(C)CC1(C(=O)Nc1ccn(-c2ccccc2)n1)c1ccccc1 (centres unmarked) [Compound 166, 2-ethyl-2-methyl-1-phenyl-N-(1-phenylpyrazol-3-yl)cyclopropanecarboxamide] | 6.20 | –
4 | O=C(Nc1ccn(-c2nccs2)n1)C1(c2ccccc2)CC1 [Compound 81, 1-phenyl-N-(1-thiazol-2-ylpyrazol-3-yl)cyclopropanecarboxamide] | 7.96 | –
5 | O=C(Cc1ccccc1)Nc1ccn(-c2ccncc2F)n1 [Compound 140, N-[1-(3-fluoro-4-pyridyl)pyrazol-3-yl]-2-phenyl-acetamide] | 5.96 | –
6 | O=C(Cc1cccc(Cl)c1Cl)Nc1ccn(-c2ccccc2)n1 [Compound 69, 2-(2,3-dichlorophenyl)-N-(1-phenylpyrazol-3-yl)acetamide] | 5.30 | –
7 | Cc1nn(C(F)F)cc1-n1ccc(NC(=O)C2(c3ccccc3F)CC2)n1 [Compound 414, N-[1-[1-(difluoromethyl)-3-methyl-pyrazol-4-yl]pyrazol-3-yl]-1-(2-fluorophenyl)cyclopropanecarboxamide] | < 5.30 | –
8 | O=C(Nc1ccn(-c2ncccc2F)n1)C1(c2ccccc2F)CC1 [Compound 95, 1-(2-fluorophenyl)-N-[1-(3-fluoro-2-pyridyl)pyrazol-3-yl]cyclopropanecarboxamide] | 6.41 | –
9 | O=C(Nc1ccn(-c2cncnc2)n1)C1(c2ncccc2F)CC1 [Compound 459, 1-(3-fluoro-2-pyridyl)-N-(1-pyrimidin-5-ylpyrazol-3-yl)cyclopropanecarboxamide] | 6.04 | –
10 | N#Cc1ccc(-n2ccc(NC(=O)C3(c4ccccc4F)CC3)n2)cn1 [Compound 326, N-[1-(6-cyano-3-pyridyl)pyrazol-3-yl]-1-(2-fluorophenyl)cyclopropanecarboxamide] | – | pIC50 [1]: < 5.30
11 | O=C(Nc1ccn(-c2ncccn2)n1)C1(c2ccccc2F)CC1 [Compound 240, 1-(2-fluorophenyl)-N-(1-pyrimidin-2-ylpyrazol-3-yl)cyclopropanecarboxamide] | 5.36 | –
12 | C[C@@H](C(=O)Nc1ccn(-c2ccccc2)n1)c1ccccc1 [Compound 27, (2R)-2-phenyl-N-(1-phenylpyrazol-3-yl)propanamide] | 6.68 | –
13 | COc1cc(-n2ccc(NC(=O)C3(c4ccc(F)cn4)CC3)n2)ccn1 [Compound 485, 1-(5-fluoro-2-pyridyl)-N-[1-(2-methoxy-4-pyridyl)pyrazol-3-yl]cyclopropanecarboxamide] | 5.82 | –
14 | O=C(Cn1cncn1)Nc1ccn(-c2ccnc(F)c2)n1 [Compound 303, N-[1-(2-fluoro-4-pyridyl)pyrazol-3-yl]-2-(1,2,4-triazol-1-yl)acetamide] | < 5.30 | –
15 | Cn1ccnc1CC(=O)Nc1ccn(-c2ccnc(F)c2)n1 [Compound 302, N-[1-(2-fluoro-4-pyridyl)pyrazol-3-yl]-2-(1-methylimidazol-2-yl)acetamide] | < 5.30 | –
16 | Cc1ccc(C)c(CC(=O)Nc2ccn(-c3ccccc3)n2)c1 [Compound 55, 2-(2,5-dimethylphenyl)-N-(1-phenylpyrazol-3-yl)acetamide] | < 5.30 | –
17 | CC1(C)CC1(C(=O)Nc1ccn(-c2cc(F)cc(F)c2)n1)c1ncccc1F (centres unmarked) [Compound 516, N-[1-(3,5-difluorophenyl)pyrazol-3-yl]-1-(3-fluoro-2-pyridyl)-2,2-dimethyl-cyclopropanecarboxamide] | 5.89 | –
18 | O=C(Cc1ccccc1F)Nc1ccn(-c2ccc(F)c(Cl)c2)n1 [Compound 199, N-[1-(3-chloro-4-fluoro-phenyl)pyrazol-3-yl]-2-(2-fluorophenyl)acetamide] | < 5.30 | –
19 | O=C(Nc1ccn(-c2cnoc2)n1)C1(c2ccccc2F)CC1 [Compound 424, 1-(2-fluorophenyl)-N-(1-(isoxazol-4-yl)-1H-pyrazol-3-yl)cyclopropane-1-carboxamide] | < 5.30 | –
20 | O=C(Nc1ccn(-c2ccnc(F)c2)n1)C1(c2ccccc2)CC1(Cl)Cl (single isomer, unassigned) [Compound 371] | – | pIC50 [1]: 6.14
21 | O=C(Nc1ccn(-c2ccccc2)n1)C1(c2c(F)cccc2Cl)CC1 [Compound 275, 1-(2-chloro-6-fluoro-phenyl)-N-(1-phenylpyrazol-3-yl)cyclopropanecarboxamide] | 7.30 | –
22 | O=C(Cc1c(F)cc(F)cc1F)Nc1ccn(-c2ccccc2)n1 [Compound 76, N-(1-phenylpyrazol-3-yl)-2-(2,4,6-trifluorophenyl)acetamide] | 7.14 | –

Row | Compound | pIC50 [2] | also measured
23 | O=C(Cc1ccccc1)Nc1ccn(-c2ccccc2)n1 [Compound 41, 2-phenyl-N-(1-phenylpyrazol-3-yl)acetamide] | 7.14 | –
24 | O=C(Nc1ccn(-c2ccccc2)n1)C1(c2ccc(F)cc2)CC1 [Compound 13, 1-(4-fluorophenyl)-N-(1-phenylpyrazol-3-yl)cyclopropanecarboxamide] | 7.09 | –
25 | O=C(Nc1ccn(-c2cncc(OC(F)F)c2)n1)C1(c2cnccn2)CC1 [Compound 496, N-[1-[5-(difluoromethoxy)-3-pyridyl]pyrazol-3-yl]-1-pyrazin-2-yl-cyclopropanecarboxamide] | < 5.30 | –
26 | CC1(C)CC1(C(=O)Nc1ccn(-c2ccnc(F)c2)n1)c1ccccc1 (centres unmarked) [Compound 165, N-[1-(2-fluoro-4-pyridyl)pyrazol-3-yl]-2,2-dimethyl-1-phenyl-cyclopropanecarboxamide] | 7.30 | –
27 | O=C(Nc1ccn(-c2cncc(F)c2)n1)C1(c2ncccc2F)CC1 [Compound 423, 1-(3-fluoropyridin-2-yl)-N-(1-(5-fluoropyridin-3-yl)-1H-pyrazol-3-yl)cyclopropane-1-carboxamide] | 7.34 | –
28 | O=C(Nc1ccn(-c2cccc(Cl)c2)n1)C1(c2ccccc2)CC1(F)F (racemic) [Compound 421, N-(1-(3-chlorophenyl)-1H-pyrazol-3-yl)-2,2-difluoro-1-phenylcyclopropane-1-carboxamide] | 6.33 | –
29 | O=C(Nc1ccn(-c2cccc(Cl)c2)n1)C1(c2ncccc2F)CC1 [Compound 418, N-(1-(3-chlorophenyl)-1H-pyrazol-3-yl)-1-(3-fluoropyridin-2-yl)cyclopropane-1-carboxamide] | 7.00 | –
30 | O=C(Cc1ccccc1F)Nc1ccn(-c2ccncn2)n1 [Compound 208, 2-(2-fluorophenyl)-N-(1-pyrimidin-4-ylpyrazol-3-yl)acetamide] | 5.64 | –
31 | CCC(C)(C(=O)Nc1ccn(-c2ccccc2)n1)c1ccccc1 (centres unmarked) [Compound 300, 2-methyl-2-phenyl-N-(1-phenylpyrazol-3-yl)butanamide] | 6.25 | –
32 | CC1CC1(C(=O)Nc1ccn(-c2ccc(F)cc2)n1)c1ncccc1F (centres unmarked) [Compound 505, N-[1-(4-fluorophenyl)pyrazol-3-yl]-1-(3-fluoro-2-pyridyl)-2-methyl-cyclopropanecarboxamide] | 6.96 | –
33 | O=C(Nc1ccn(-c2cccc(Cl)c2)n1)C1(c2ccccc2)CC1(F)F (single isomer, unassigned) [Compound 438] | – | pIC50 (13C-labeled C26:0 LPC, 48 hours): 6.27
34 | [2H]C([2H])([2H])Oc1ccc(-n2ccc(NC(=O)C3(c4ccccc4F)CC3)n2)cn1 [Compound 440, 1-(2-fluorophenyl)-N-[1-[6-(trideuteriomethoxy)-3-pyridyl]pyrazol-3-yl]cyclopropanecarboxamide] | 7.28 | –
35 | O=C(Nc1ccn(-c2ccc(O)c(F)c2)n1)C1(c2ccccc2F)CC1 [Compound 355, N-[1-(3-fluoro-4-hydroxy-phenyl)pyrazol-3-yl]-1-(2-fluorophenyl)cyclopropanecarboxamide] | – | pIC50 [1]: 5.77
36 | O=C(Cc1ccccc1F)Nc1ccn(-c2cccnc2)n1 [Compound 235, 2-(2-fluorophenyl)-N-[1-(3-pyridyl)pyrazol-3-yl]acetamide] | 6.49 | –
37 | O=C(Nc1ccn(-c2ccncc2C(F)(F)F)n1)C1(c2ccccc2F)CC1 [Compound 328, 1-(2-fluorophenyl)-N-[1-[3-(trifluoromethyl)-4-pyridyl]pyrazol-3-yl]cyclopropanecarboxamide] | – | pIC50 [1]: < 5.30
38 | Cc1cc(-n2ccc(NC(=O)Cc3ccc(F)cc3)n2)ccn1 [Compound 111, 2-(4-fluorophenyl)-N-[1-(2-methyl-4-pyridyl)pyrazol-3-yl]acetamide] | < 5.00 | –
39 | O=C(Nc1ccn(-c2ccc(F)cc2)n1)C1(c2cnccn2)CC1 [Compound 494, N-[1-(4-fluorophenyl)pyrazol-3-yl]-1-pyrazin-2-yl-cyclopropanecarboxamide] | < 5.30 | –
40 | O=C(Nc1ccn(-c2ccccc2)n1)C1(c2cc(Cl)ccc2F)CC1 [Compound 265, 1-(5-chloro-2-fluoro-phenyl)-N-(1-phenylpyrazol-3-yl)cyclopropanecarboxamide] | 6.62 | –
41 | O=C(Nc1ccn(-c2cncc(F)c2)n1)C1(c2ccccn2)CC1 [Compound 464, N-[1-(5-fluoro-3-pyridyl)pyrazol-3-yl]-1-(2-pyridyl)cyclopropanecarboxamide] | 6.89 | –
42 | O=C(Nc1ccn(-c2ccnc(F)c2)n1)C1(c2ccc(Cl)cc2)CC1 [Compound 257, 1-(4-chlorophenyl)-N-[1-(2-fluoro-4-pyridyl)pyrazol-3-yl]cyclopropanecarboxamide] | 6.47 | –
43 | O=C(Cc1ccccc1)Nc1ccn(-c2cnccn2)n1 [Compound 218, 2-phenyl-N-(1-pyrazin-2-ylpyrazol-3-yl)acetamide] | < 5.70 | –
44 | O=C(Nc1ccn(-c2cnccn2)n1)C1(c2ccccc2F)CC1 [Compound 215, 1-(2-fluorophenyl)-N-(1-pyrazin-2-ylpyrazol-3-yl)cyclopropanecarboxamide] | 6.21 | –
